For orientation: EC90 means the concentration at which the effect reaches the 90% level.

The values below come from paper PMC3715147 (Journal of natural products, 2013).

The subject of test [1] is HIV-1 NL4-3. As to the kind of experiment: Anti-HIV assay: HIV-1 NL4-3 replication in MT4 cells. Type of test: cell-based. To be noted: Human immunodeficiency virus 1, NL43, Lymphocyte, read-out: anti-HIV EC90.
Test [2] deals with HIV-1 R5 viruses. To be noted: cited from earlier work.
Test [3] concerns X4 or dual tropic HIV-1. The following applies: peripheral blood mononuclear cells (PBMCs); cited from earlier work.

As for `CCCCCCCCCC(=O)O[C@@]12[C@H](OC(=O)c3ccccc3)[C@@H](C)[C@@]3(O)[C@@H](C=C(CO)C[C@]4(O)C(=O)C(C)=C[C@@H]34)[C@@H]1C2(C)C` [Compound 1, stellerarin], in test [1], the EC90 is < 1 nM.

Consider `CCCCCCCC(=O)O[C@]12[C@H]([C@@H]3C=C(CO)C[C@]4(O)C(=O)C(C)=C[C@H]4[C@@]3(O)C[C@H]1OC(=O)c1ccccc1)C2(C)C` [Compound 2, 12-O-benzoylphorbol 13-octanoate], for which the EC90 in test [1] is < 1 nM.

`CCCCC/C=C\CCC(=O)O[C@@]12[C@H](OC(=O)c3ccccc3)[C@@H](C)[C@@]3(O)[C@@H](C=C(CO)C[C@]4(O)C(=O)C(C)=C[C@@H]34)[C@@H]1C2(C)C` [Compound 3, stelleracin A]: the EC90 in test [1] is < 1 nM.

As to `C=C(C)[C@@]12C[C@@H](COC(=O)c3ccccc3)[C@@]34OC5(O[C@@H]1[C@@H]3[C@@H]1O[C@]1(CO)[C@@H](O)[C@@]1(O)[C@H]4[C@H]([C@H](C)[C@@H]1OC(=O)c1ccccc1)[C@H](C)CCCCCC[C@H]5O)O2` [gnidimacrin], the “inhibition of HIV-1 R5 viruses (in words)” value in test [2] is reported as “potent inhibitor”. In addition, the “activity against X4 or dual tropic HIV-1 replication (in words)” value in test [3] is “essentially inactive”.
